Like-named read-outs stand apart in the source and are kept apart here.
Columns and labels:
[1] = Drug disposition after intravenous injection to beagles, plasma concentration-time curve (Experimental Example 1); format: in vivo; settings: dog, 1 mg/kg iv; for half-life: iv, 1 mg/kg
Experimental: 1 mg/kg of compound (VIII) was administered to beagles by intravenous injection and the plasma concentration-time curve thereof of prepared to find that the half-life composed of three phases (phases a, b and c).

[2] = Correlation between AUC and oral dose in beagles, powder of ten-fold dilution with lactose in capsule; bioavailability from regression line (Experimental Example 2); format: in vivo; settings: oral
Experimental: Compound (VIII) or compound V was formulated into a powder of ten-fold dilution with lactose. It was given to beagles in an amount ranging from 0.3 to 30 mg/kg as a capsule by oral administration and the plasma concentration-time curve thereof was prepared. The regression line equation was as follows: […]

[3] = Oral administration to fasted beagles of compound (II) or (III) with ascorbic acid, plasma drug disposition parameters (Experimental Examples 5 and 6); settings: for AUC(0-t) at 8 h / Cmax / Tmax: po, 3 mg/kg, n=2; for AUC(0-t) at 8 h: AUC (0-8 hr) mean ± SE; for Cmax: Cmax mean ± SE; for Tmax: Tmax mean ± SE
Experimental: The term "bioavailability" herein is defined as follows: a plasma concentration-time curve of a drug after being administered once is prepared in each case of administration by intravenous injection and oral administration with the same amount of the drug, and the availability is represented by the ratio (F) of the area under the plasma concentration-time curve in the case of oral administration ([AUC]PO)to the area under the plasma concentration-time curve in the case of intravenous injection ([AUC]IV): [formula]
The ratio of an AUC value obtained when one or more compounds selected from the group consisting of organic acids and salts thereof are added to an AUC value obtained when no such compound(s) is (are) added will be referred to as "addition effect ratio".
350 mg of ascorbic acid and 70 mg of lactose were added to 70 mg of compound (II) and the mixture was thoroughly pulverized and mixed in a mortar. The mixture was filled in each of No. 2 gelatin capsules in such an amount that the dose of compound (II) would be 3 mg/kg to obtain a preparation.
A control sample free from ascorbic acid was prepared by preparing a powder of 7-fold dilution with lactose (70 mg of compound (II) plus 420 mg of lactose) and filled in No. 2 capsules in such an amount that the dose of compound (II) would be 3 mg/kg to obtain a preparation.
(a) Administration and collection of blood sample
(§1) Four beagles were divided into two groups (i.e. a group to which ascorbic acid was given and a control group) after fasting overnight (14 hours) and a preparation comprising 3 mg/kg of compound (II) and 15 mg/kg of ascorbic acid or a control preparation comprising no ascorbic acid was given together with 30 ml of water by oral administration. No food was given also in the course of collection of blood sample. 3 ml of the whole blood was sampled through a vein of a foreleg by means of a heparinized syringe, immediately cooled with ice/water and centrifuged (1200 rpm, 3 min, 4° C.). The blood plasma was separated and a citrate buffer solution (pH 3.5, 100 μl) was added thereto to adjust the pH to 5.0. The plasma thus treated was kept frozen at -20° C. The points of collection of blood samples were before the administration and 10, 20, 30 and 45 minutes and 1, 1.5, 2, 3, 4, 6 and 8 hours after the administration.
(b) Method of analysis of concentration of unchanged substance in blood plasma
(c) HPLC determination conditions
The drug disposition parameters of each sample were determined from the data obtained by the oral administration of the preparation comprising 3 mg/kg of compound (II) and 15 mg/kg of ascorbic acid or a control preparation comprising no ascorbic acid to beagles while they were kept fasting.
350 mg of ascorbic acid and 70 mg of lactose were added to 70 mg of compound (III) and the mixture was thoroughly pulverized and mixed in a mortar. The mixture was filled in each of No. 2 gelatin capsules in such an amount that the dose of compound (III) would be 3 mg/kg to obtain a preparation.
A control sample free from ascorbic acid was prepared by preparing a powder of 7-fold dilution with lactose (70 mg of compound (III) plus 420 mg of lactose) and filled in No. 2 capsules in such an amount that the dose of compound (III) would be 3 mg/kg to obtain a preparation.
as §1, with “(III)” for “(II)”, “syringe,” for “syringe, immediately”, “5.0.” for “5.0. The plasma thus treated was kept frozen at -20° C. The points of collection of blood samples were before the administration and 10, 20, 30 and 45 minutes and 1, 1.5, 2, 3, 4, 6 and 8 hours after the administration.”

[4] = dog, in vivo, 3 mg/kg oral + ascorbic acid 15 mg/kg
[5] = dog, in vivo, 3 mg/kg oral, none (control)
[6] = dog, plasma, 3 mg/kg oral + ascorbic acid 15 mg/kg
[7] = dog, plasma, 3 mg/kg oral, none (control)

In the case of `Br.Oc1ccc([C@@H]2CNC[C@H]2c2cccc(O)c2Cl)cc1O` (relative stereo) [compound (VIII), trans-3-(2-chloro-3-hydroxyphenyl)-4-(3,4-dihydroxyphenyl)pyrrolidine hydrobromide], the clearance ([1]; read-out: CLtotal) is reported as 78 mL/min/kg, the C0 ([1]; read-out: CP^0) is reported as 2290 ng/mL and the MRT ([1]; read-out: MRT (mean residence time in the plasma) (converted)) is reported as 14.5 min. For the same compound, the Vd ([1]; read-out: Vc) was 0.44 L/kg, the half-life ([1]; phase a, read-out: t1/2a) was 1.3 min and the half-life ([1]; phase b, read-out: t1/2b) was 8.11 min. The half-life ([1]; phase c, read-out: t1/2c) was 26.9 min, the bioavailability ([2]; dog, plasma, efficacious dose around 3 to 5 mg/kg) was 4 to 5% and the “gradient of regression line log(AUC) vs log(dose)” value ([2]; 0.3 to 30 mg/kg) was 1.218. The “increase of AUC value when the dose is increased 10-fold” value ([2]; 0.3 to 30 mg/kg) was 16.5 -fold and the “intercept of regression line log(AUC) vs log(dose)” value ([2]; 0.3 to 30 mg/kg) was 0.894.

With `Br.Oc1ccc(C2CNCc3c2ccc(O)c3O)cc1O` (stereo not drawn) [compound (II), 7,8-dihydroxy-4-(3,4-dihydroxyphenyl)-1,2,3,4-tetrahydroisoquinoline hydrobromide] the “Addition effect (AUC ratio)” value ([3]; 3 mg/kg oral + ascorbic acid 15 mg/kg) was 1.39, the “Addition effect (AUC ratio)” value ([3]; 3 mg/kg oral, none (control)) was 1.00 and the AUC(0-t) at 8 h [3, 4] was 116.6 ± 0.1 ng·h/mL. For the same compound, the AUC(0-t) at 8 h [3, 5] was 83.6 ± 4.7 ng·h/mL, the Cmax [3, 4] was 89.6 ± 11.8 ng/mL and the Cmax [3, 5] was 95.6 ± 42.2 ng/mL. The Tmax [3, 4] was 37.8 ± 7.8 min, the Tmax [3, 5] was 25.2 ± 5.4 min and the “increase of AUC value” ([3]; with ascorbic acid) was “about 1.4 -fold”.

In the case of `CS(=O)(=O)O.Oc1ccc(C2CNCCc3c2cc(O)c(O)c3Cl)cc1` (stereo not drawn) [compound (III), 6-chloro-2,3,4,5-tetrahydro-1-(4-hydroxyphenyl)-1H-3-benzazepine-7,8-diol methanesulfonate, reference compound], the “increase of AUC value” ([3]; dog, in vivo) is reported as “about 3.3 -fold”, the AUC(0-t) at 8 h [3, 6] is reported as 197 ± 12.5 ng·h/mL and the AUC(0-t) at 8 h [3, 7] is reported as 59.8 ± 16.9 ng·h/mL. For the same compound, the Cmax [3, 6] was 91.9 ± 0.4 ng/mL, the Cmax [3, 7] was 39 ± 16.6 ng/mL and the Tmax [3, 6] was 30 ± 15 min. The Tmax [3, 7] was 45 ± 15 min.
